{"source": "patent US8829007B2", "about": "(priority 2009, dated 2014)", "key": {"[1]": {"tested_on": "A/PR/8/34 influenza virus", "assay": "microbe, parasite or virus in culture", "format": "cell-based"}, "[2]": {"tested_on": "influenza A virus (A/PR/8/34)", "assay": "microbe, parasite or virus in culture", "format": "cell-based"}, "[3]": {"settings": "Influenza A virus, PR/8, MDCK, MDCK cells infected with A/PR/8/34, replication of influenza virus (viral RNA, bDNA), class symbols, read-out: EC50 (mean all)"}, "[4]": {"settings": "Influenza A virus, PR/8, MDCK, MDCK cells infected with A/PR/8/34, survival of infected cells, class symbols, read-out: IC50 (mean all)"}, "[5]": {"settings": "Influenza A virus, PR/8, mean all, replication of A/PR/8/34 influenza virus (bDNA assay), read-out: EC50"}, "[6]": {"settings": "Influenza A virus, PR/8, MDCK, mean all, survival of A/PR/8/34 infected MDCK cells (CPE assay), read-out: IC50"}, "[7]": {"settings": "Influenza A virus, PR/8, MDCK, MDCK cells infected with A/PR/8/34, bDNA viral RNA, read-out: EC50 (mean all)"}, "[8]": {"settings": "Influenza A virus, PR/8, MDCK, MDCK cells infected with A/PR/8/34, cell protection (CPE), read-out: IC50 (mean all)"}, "[9]": {"settings": "Influenza A virus, PR/8, MDCK, mean all, A/PR/8/34 influenza virus in MDCK cells, bDNA assay, read-out: EC50"}, "[10]": {"settings": "Influenza A virus, PR/8, MDCK, mean all, A/PR/8/34 infected MDCK cells, CPE assay, read-out: IC50"}}, "note": "pEC50, pIC50: −log10 of the molar value. Where two headings read alike, the source gives them in different places."}
{"compound": "1-[(1S,2S)-2-[[2-(5-chloro-1H-pyrrolo[2,3-b]pyridin-3-yl)-5-fluoro-pyrimidin-4-yl]amino]cyclohexyl]-3-methyl-urea [Compound 426]", "values": [{"measurement": "pEC50", "setting": "[1]; mean all, A/PR/8/34 influenza virus in MDCK cells, bDNA assay, read-out: EC50", "value": "> 5.30"}, {"measurement": "pIC50", "setting": "[2]; read-out: IC50", "value": "> 5.30"}]}
{"compound": "O=C(O)[C@H]1CCCC[C@@H]1Nc1nc(-c2c[nH]c3ncc(Cl)cc23)ncc1F", "note": "(racemic) [Compound 541, Trans-2-(2-(5-chloro-1H-pyrrolo[2,3-b]pyridin-3-yl)-5-fluoropyrimidin-4-ylamino)cyclohexanecarboxylic acid]", "values": [{"measurement": "pEC50", "setting": "[1]; [3]", "value": "> 5.30"}, {"measurement": "pIC50", "setting": "[2]; [4]", "value": "> 5.30"}]}
{"compound": "N[C@@H]1CCCC[C@H]1CNc1nc(-c2c[nH]c3ncc(Cl)cc23)ncc1F", "note": "(racemic) [Compound 555, N-((trans-2-aminocyclohexyl)methyl)-2-(5-chloro-1H-pyrrolo[2,3-b]pyridin-3-yl)-5-fluoropyrimidin-4-amine]", "values": [{"measurement": "pEC50", "setting": "[1]; [3]", "value": "> 5.30"}, {"measurement": "pIC50", "setting": "[2]; [4]", "value": "< 5.00"}]}
{"compound": "O=C(O)[C@H]1[C@@H]2CC[C@@H](C2)[C@@H]1Nc1nc(-c2c[nH]c3ncc(Cl)cc23)ncc1F", "note": "(racemic) [Compound 946]", "values": [{"measurement": "pEC50", "setting": "[1]; [5]", "value": "> 5.30"}, {"measurement": "pIC50", "setting": "[2]; [6]", "value": "> 5.30"}]}
{"compound": "O=C(O)[C@H]1C(Nc2nc(-c3c[nH]c4ncc(Cl)cc34)ncc2F)[C@H]2CC[C@@H]1C2", "note": "(mixture of isomers) [Compound 947]", "values": [{"measurement": "pEC50", "setting": "[1]; [5]", "value": "> 5.30"}, {"measurement": "pIC50", "setting": "[2]; [6]", "value": "> 5.30"}]}
{"compound": "O[C@@H]1CCCC[C@H]1Nc1nc(-c2c[nH]c3ncccc23)ncc1F", "note": "(relative stereo) [Compound 207, Trans-2-[[5-fluoro-2-(1H-pyrrolo[2,3-b]pyridin-3-yl)pyrimidin-4-yl]amino]cyclohexanol]", "values": [{"measurement": "pEC50", "setting": "[1]; [7]", "value": "> 5.30"}, {"measurement": "pIC50", "setting": "[2]; [8]", "value": "> 5.30"}]}
{"compound": "O[C@@H]1CCCC[C@@H]1Nc1nc(-c2c[nH]c3ncccc23)ncc1F", "note": "(relative stereo) [Compound 277, Cis-2-[[5-fluoro-2-(1H-pyrrolo[2,3-b]pyridin-3-yl)pyrimidin-4-yl]amino]cyclohexanol]", "values": [{"measurement": "pEC50", "setting": "[1]; [7]", "value": "> 5.30"}, {"measurement": "pIC50", "setting": "[2]; [8]", "value": "> 5.30"}]}
{"compound": "CC(=O)N[C@H]1CCC[C@@H](Nc2nc(-c3c[nH]c4ncc(Cl)cc34)ncc2F)C1", "note": "(relative stereo) [Compound 452, N-[cis-3-[[2-(5-chloro-1H-pyrrolo[2,3-b]pyridin-3-yl)-5-fluoropyrimidin-4-yl]amino]cyclohexyl]acetamide]", "values": [{"measurement": "pEC50", "setting": "[1]; [9]", "value": "> 5.30"}, {"measurement": "pIC50", "setting": "[2]; [10]", "value": "> 5.30"}]}
{"compound": "CNC(=O)N[C@H]1CCC[C@@H](Nc2nc(-c3c[nH]c4ncc(Cl)cc34)ncc2F)C1", "note": "(relative stereo) [Compound 455, 1-[cis-3-[[2-(5-chloro-1H-pyrrolo[2,3-b]pyridin-3-yl)-5-fluoro-pyrimidin-4-yl]amino]cyclohexyl]-3-methyl-urea]", "values": [{"measurement": "pEC50", "setting": "[1]; [9]", "value": "> 5.30"}, {"measurement": "pIC50", "setting": "[2]; [10]", "value": "> 5.30"}]}
{"compound": "CN(C)C(=O)N[C@H]1CCC[C@@H](Nc2nc(-c3c[nH]c4ncc(Cl)cc34)ncc2F)C1", "note": "(relative stereo) [Compound 456, 3-[cis-3-[[2-(5-chloro-1H-pyrrolo[2,3-b]pyridin-3-yl)-5-fluoro-pyrimidin-4-yl]amino]cyclohexyl]-1,1-dimethyl-urea]", "values": [{"measurement": "pEC50", "setting": "[1]; [9]", "value": "> 5.30"}, {"measurement": "pIC50", "setting": "[2]; [10]", "value": "> 5.30"}]}
{"compound": "CC(=O)N[C@H]1CCC[C@H](Nc2nc(-c3c[nH]c4ncc(Cl)cc34)ncc2F)C1.CC(N)=O", "note": "(relative stereo) [Compound 457, N-[trans-3-[[2-(5-chloro-1H-pyrrolo[2,3-b]pyridin-3-yl)-5-fluoro-pyrimidin-4-yl]amino]cyclohexyl]acetamide acetamide]", "values": [{"measurement": "pEC50", "setting": "[1]; [9]", "value": "> 5.30"}, {"measurement": "pIC50", "setting": "[2]; [10]", "value": "> 5.30"}]}
{"compound": "CNC(=O)N[C@H]1CCC[C@H](Nc2nc(-c3c[nH]c4ncc(Cl)cc34)ncc2F)C1", "note": "(relative stereo) [Compound 458, 1-[trans-3-[[2-(5-chloro-1H-pyrrolo[2,3-b]pyridin-3-yl)-5-fluoro-pyrimidin-4-yl]amino]cyclohexyl]-3-methyl-urea]", "values": [{"measurement": "pEC50", "setting": "[1]; [9]", "value": "> 5.30"}, {"measurement": "pIC50", "setting": "[2]; [10]", "value": "> 5.30"}]}
{"compound": "CN(C)C(=O)N[C@H]1CCC[C@H](Nc2nc(-c3c[nH]c4ncc(Cl)cc34)ncc2F)C1", "note": "(relative stereo) [Compound 459, 3-[trans-3-[[2-(5-chloro-1H-pyrrolo[2,3-b]pyridin-3-yl)-5-fluoro-pyrimidin-4-yl]amino]cyclohexyl]-1,1-dimethyl-urea]", "values": [{"measurement": "pEC50", "setting": "[1]; [9]", "value": "> 5.30"}, {"measurement": "pIC50", "setting": "[2]; [10]", "value": "> 5.30"}]}
